# Experimental data taken from ChEMBL document CHEMBL3046842, “Antimicrobial and insect antifeedant activities of some Trogers bases” (2012).
# Active and inactive are the calls of the source. Unless noted, the rule behind the calls is not given here.
# Experiments:
# Enterococcus faecalis = assay: Antibacterial activity against Enterococcus faecalis at 250 ug/ml after 24 to 45 hrs by disc diffusion method; format: functional
# Escherichia coli = assay: Antibacterial activity against Escherichia coli at 250 ug/ml after 24 to 45 hrs by disc diffusion method; format: functional; details: read-out: IZ
# Achaea janata [1] = assay: Antifeedant activity against fourth instar larvae of Achaea janata fed on compound treated castor leaves at 200 ppm after 24 hrs by leaf disc method; format: functional, organism-based
# Staphylococcus aureus = assay: Antibacterial activity against Staphylococcus aureus at 250 ug/ml after 24 to 45 hrs by disc diffusion method; format: functional; details: read-out: IZ
# Klebsiella pneumoniae = assay: Antibacterial activity against Klebsiella pneumoniae at 250 ug/ml after 24 to 45 hrs by disc diffusion method; format: functional; details: read-out: IZ
# Aspergillus niger = assay: Antifungal activity against Aspergillus niger at 50 ug/ml after 72 hrs by disc diffusion method; format: functional, organism-based
# Achaea janata [2] = assay: Antifeedant activity against fourth instar larvae of Achaea janata fed on compound treated castor leaves at 150 ppm after 24 hrs by leaf disc method; format: functional, organism-based
# Proteus vulgaris = assay: Antibacterial activity against Proteus vulgaris at 250 ug/ml after 24 to 45 hrs by disc diffusion method; format: functional; details: read-out: IZ
# Penicillium = assay: Antifungal activity against Penicillium at 50 ug/ml after 72 hrs by disc diffusion method; format: functional, organism-based
# Candida albicans = assay: Antifungal activity against Candida albicans at 250 ug/ml after 72 hrs by disc diffusion method; format: functional
# Pseudomonas = assay: Antibacterial activity against Pseudomonas at 250 ug/ml after 24 to 45 hrs by disc diffusion method; format: functional; details: read-out: IZ
SMILES,Activity (Enterococcus faecalis),zone of inhibition at 250 µg/mL (Escherichia coli) [mm],Activity (Achaea janata [1]),zone of inhibition at 250 µg/mL (Staphylococcus aureus) [mm],zone of inhibition at 250 µg/mL (Klebsiella pneumoniae) [mm],Activity (Aspergillus niger),Activity (Achaea janata [2]),zone of inhibition at 250 µg/mL (Proteus vulgaris) [mm],Activity (Penicillium),Activity (Candida albicans),zone of inhibition at 250 µg/mL (Pseudomonas) [mm],zone of inhibition at 250 µg/mL (Candida albicans; read-out: IZ) [mm]
FC(F)(F)c1ccc2c(c1)CN1CN2Cc2cc(C(F)(F)F)ccc21,inactive,13,Active,13,13,inactive,Active,13,inactive,inactive,13,
Fc1cc2c(cc1Cl)N1Cc3cc(F)c(Cl)cc3N(C2)C1,inactive,13,Active,13,13,inactive,Active,13,Active,,13,13
